The NIST ThermoML archive (doi:10.1021/acs.jced.6b00350)
Where “and” joins values, the source holds several entries; their conditions need not be identical. Identical values can stand only once. ± gives the expanded uncertainty stated by the source.

Details: Liquid, Hot wire method

FC(F)CC(F)(F)F [1,1,1,3,3-pentafluoropropane]
Details | thermal conductivity
173.21 K, 150 kPa | 0.1235 ± 0.0016 W/m/K and 0.1232 ± 0.0016 W/m/K
173.3 K, 132 kPa | 0.1239 ± 0.0016 W/m/K
173.3 K, 133 kPa | 0.1234 ± 0.0016 W/m/K
173.3 K, 148 kPa | 0.1237 ± 0.0016 W/m/K and 0.1231 ± 0.0016 W/m/K
173.41 K, 150 kPa | 0.1234 ± 0.0016 W/m/K
173.51 K, 135 kPa | 0.1234 ± 0.0016 W/m/K and 0.1231 ± 0.0016 W/m/K
173.51 K, 148 kPa | 0.1235 ± 0.0016 W/m/K and 0.1238 ± 0.0016 W/m/K
173.66 K, 150 kPa | 0.1231 ± 0.0016 W/m/K
173.75 K, 136 kPa | 0.1237 ± 0.0016 W/m/K
173.75 K, 137 kPa | 0.1236 ± 0.0016 W/m/K
173.75 K, 148 kPa | 0.1236 ± 0.0016 W/m/K
173.91 K, 150 kPa | 0.1233 ± 0.0016 W/m/K and 0.1231 ± 0.0016 W/m/K
174.01 K, 138 kPa | 0.1235 ± 0.0016 W/m/K
174.01 K, 140 kPa | 0.1235 ± 0.0016 W/m/K
174.01 K, 148 kPa | 0.1235 ± 0.0016 W/m/K
174.01 K, 149 kPa | 0.1235 ± 0.0016 W/m/K
174.21 K, 150 kPa | 0.1234 ± 0.0016 W/m/K
174.29 K, 140 kPa | 0.1233 ± 0.0016 W/m/K
174.29 K, 141 kPa | 0.1231 ± 0.0016 W/m/K
174.3 K, 149 kPa | 0.1239 ± 0.0016 W/m/K and 0.1236 ± 0.0016 W/m/K
181.78 K, 159 kPa | 0.1224 ± 0.0015 W/m/K and 0.1223 ± 0.0015 W/m/K
182.06 K, 158 kPa | 0.1227 ± 0.0016 W/m/K and 0.1222 ± 0.0015 W/m/K
182.37 K, 158 kPa | 0.1222 ± 0.0015 W/m/K and 0.1225 ± 0.0015 W/m/K
182.5 K, 266 kPa | 0.1225 ± 0.0015 W/m/K
182.5 K, 269 kPa | 0.1226 ± 0.0015 W/m/K
182.51 K, 5857 kPa | 0.1236 ± 0.0016 W/m/K
182.51 K, 70521 kPa | 0.1336 ± 0.0017 W/m/K
182.52 K, 5874 kPa | 0.1237 ± 0.0016 W/m/K
182.52 K, 12298 kPa | 0.1248 ± 0.0016 W/m/K
182.52 K, 12334 kPa | 0.1252 ± 0.0016 W/m/K
182.53 K, 18829 kPa | 0.126 ± 0.0016 W/m/K
182.53 K, 18849 kPa | 0.126 ± 0.0016 W/m/K
182.53 K, 32455 kPa | 0.1283 ± 0.0016 W/m/K
182.54 K, 25387 kPa | 0.1271 ± 0.0016 W/m/K
182.54 K, 25434 kPa | 0.1275 ± 0.0016 W/m/K
182.54 K, 63262 kPa | 0.1331 ± 0.0017 W/m/K and 0.133 ± 0.0017 W/m/K
182.55 K, 32519 kPa | 0.128 ± 0.0016 W/m/K
182.6 K, 54974 kPa | 0.1317 ± 0.0017 W/m/K
182.6 K, 54979 kPa | 0.1314 ± 0.0017 W/m/K
182.64 K, 47632 kPa | 0.1303 ± 0.0016 W/m/K
182.64 K, 47638 kPa | 0.1309 ± 0.0017 W/m/K
182.68 K, 39974 kPa | 0.1293 ± 0.0016 W/m/K
182.68 K, 39979 kPa | 0.1294 ± 0.0016 W/m/K
182.7 K, 158 kPa | 0.1222 ± 0.0015 W/m/K
182.71 K, 158 kPa | 0.1222 ± 0.0015 W/m/K
182.81 K, 266 kPa | 0.1225 ± 0.0015 W/m/K
182.81 K, 278 kPa | 0.1224 ± 0.0015 W/m/K
182.81 K, 5870 kPa | 0.1236 ± 0.0016 W/m/K
182.81 K, 5874 kPa | 0.1234 ± 0.0016 W/m/K
182.81 K, 70507 kPa | 0.134 ± 0.0017 W/m/K
182.81 K, 70514 kPa | 0.134 ± 0.0017 W/m/K
182.82 K, 12333 kPa | 0.1247 ± 0.0016 W/m/K
182.83 K, 18827 kPa | 0.1259 ± 0.0016 W/m/K
182.83 K, 18835 kPa | 0.1259 ± 0.0016 W/m/K
182.83 K, 25436 kPa | 0.1272 ± 0.0016 W/m/K
182.84 K, 25420 kPa | 0.127 ± 0.0016 W/m/K
182.84 K, 32528 kPa | 0.1281 ± 0.0016 W/m/K
182.84 K, 32589 kPa | 0.128 ± 0.0016 W/m/K
182.85 K, 63255 kPa | 0.1331 ± 0.0017 W/m/K
182.91 K, 54970 kPa | 0.1314 ± 0.0017 W/m/K
182.92 K, 54983 kPa | 0.1316 ± 0.0017 W/m/K
182.95 K, 47626 kPa | 0.1304 ± 0.0016 W/m/K
182.95 K, 47631 kPa | 0.1305 ± 0.0016 W/m/K
182.99 K, 39966 kPa | 0.129 ± 0.0016 W/m/K
182.99 K, 39976 kPa | 0.1291 ± 0.0016 W/m/K
183.06 K, 158 kPa | 0.1223 ± 0.0015 W/m/K and 0.1222 ± 0.0015 W/m/K
183.13 K, 269 kPa | 0.1224 ± 0.0015 W/m/K
183.14 K, 277 kPa | 0.1224 ± 0.0015 W/m/K
183.14 K, 5876 kPa | 0.1234 ± 0.0016 W/m/K
